Consider 68 compounds from patent US12534742B2, “Compound for regulating gene editing efficiency and application thereof” (Shanghai Institute of Organic Chemistry, Chinese Academy of …, priority 2018, dated 2026).

Bounds are passed on as bounds.

Usually IC50 stands for the concentration that gives 50% inhibition. Read a high IC50 as lower potency.

The experiment addresses CRISPR/Cas9 from Streptococcus pyogenes (SpyCas9) (Streptococcus pyogenes serotype M1, UniProt Q99ZW2). The experiment is described as follows: cell-based.
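Further: Cell-based reporter with a SpyCas9 target site placed in EGFP, where NHEJ repair of the cut restores the reading frame, read-out is the share of EGFP-positive cells, lowered by inhibitors.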

Chain of CRISPR/Cas9 from Streptococcus pyogenes (SpyCas9) (Q99ZW2 whole entry): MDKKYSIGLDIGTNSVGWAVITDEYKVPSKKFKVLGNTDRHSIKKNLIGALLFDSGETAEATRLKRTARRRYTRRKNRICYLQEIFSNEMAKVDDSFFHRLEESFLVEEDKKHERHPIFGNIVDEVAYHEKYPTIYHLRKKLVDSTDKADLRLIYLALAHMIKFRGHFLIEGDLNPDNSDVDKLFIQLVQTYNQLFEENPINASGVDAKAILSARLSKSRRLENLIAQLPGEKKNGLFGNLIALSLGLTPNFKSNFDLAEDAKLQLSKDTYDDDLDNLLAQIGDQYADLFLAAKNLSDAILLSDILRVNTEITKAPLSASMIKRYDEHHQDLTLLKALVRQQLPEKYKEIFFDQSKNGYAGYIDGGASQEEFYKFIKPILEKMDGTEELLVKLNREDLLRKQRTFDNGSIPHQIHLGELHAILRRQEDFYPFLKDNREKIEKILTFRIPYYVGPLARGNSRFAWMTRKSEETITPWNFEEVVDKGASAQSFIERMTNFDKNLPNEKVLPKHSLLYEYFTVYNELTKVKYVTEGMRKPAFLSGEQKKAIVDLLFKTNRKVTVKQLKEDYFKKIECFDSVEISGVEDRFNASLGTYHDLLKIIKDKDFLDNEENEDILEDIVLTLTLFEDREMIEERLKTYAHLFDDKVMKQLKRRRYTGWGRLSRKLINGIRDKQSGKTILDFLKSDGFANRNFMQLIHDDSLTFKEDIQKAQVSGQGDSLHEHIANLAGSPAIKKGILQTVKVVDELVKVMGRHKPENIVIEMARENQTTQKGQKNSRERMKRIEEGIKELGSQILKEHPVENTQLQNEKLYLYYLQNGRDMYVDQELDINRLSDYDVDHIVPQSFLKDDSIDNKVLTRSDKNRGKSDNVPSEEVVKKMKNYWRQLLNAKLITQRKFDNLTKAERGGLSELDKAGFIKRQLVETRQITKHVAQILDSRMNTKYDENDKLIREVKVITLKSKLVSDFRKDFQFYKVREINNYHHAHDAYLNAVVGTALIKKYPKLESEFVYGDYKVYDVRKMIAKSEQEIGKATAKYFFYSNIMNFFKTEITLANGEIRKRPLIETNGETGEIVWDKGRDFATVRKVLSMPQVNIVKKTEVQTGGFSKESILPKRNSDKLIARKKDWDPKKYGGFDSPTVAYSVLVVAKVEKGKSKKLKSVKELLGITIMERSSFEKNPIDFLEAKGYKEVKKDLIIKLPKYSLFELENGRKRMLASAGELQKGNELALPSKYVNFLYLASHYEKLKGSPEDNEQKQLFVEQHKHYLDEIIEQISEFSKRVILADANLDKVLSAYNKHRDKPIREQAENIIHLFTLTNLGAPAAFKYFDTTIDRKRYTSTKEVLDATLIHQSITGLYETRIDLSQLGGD
From the text: The CRISPR/Cas9 recognition site was inserted into the EGFP coding sequence so that the downstream sequence of the CRISPR/Cas9 recognition site was inside the box. The EGFP sequence was cleaved by Cas9 to produce double-strand breaks (DSBs), which would repair one of the two DNA repair mechanisms in the cell: non-homologous end joining (NHEJ) or homologous directed repair (HDR). The insertion or deletion introduced by NHEJ would restore the open reading frame of EGFP, thus activating EGFP fluorescence (FIG. 1).

`O=C(/C=C/c1ccccc1)c1ccc(Br)cc1` [Compound 900]: the IC50 is > 100 µM. On to `CCOCCNS(=O)(=O)/C=C/c1ccccc1` [Compound 867], for which the IC50 is > 100 µM. In the case of `O=C(/C=C/c1ccccc1Br)c1ccccc1` [Compound 127] it was 10 to 100 µM.

Regarding `O=C(/C=C/c1ccccc1)Nc1ccc([N+](=O)[O-])cc1` [Compound 861], the IC50 is > 100 µM.

As for `O=C(/C=C/c1ccccc1)N1CCN(Cc2ccccc2)CC1` [Compound 845], the IC50 is > 100 µM. As for `NC(=O)/C(=C/n1cnc(-c2cc(C(F)(F)F)cc(C(F)(F)F)c2)n1)c1cncnc1` [Compound 904], the IC50 lay in the range of 1 to 10 µM.

For `O=S(F)(=Nc1ccc(Br)cc1)Oc1ccc(Br)cc1` (centres unmarked) [Compound 881], the concentration for half-maximal inhibition (IC50) was > 100 µM.

Regarding `COc1cc(/C=C/c2ccc(O)cc2)cc(OC)c1` [Compound 811], the concentration for half-maximal inhibition (IC50) is > 100 µM. For `CCN(Cc1ccccc1)S(=O)(=O)/C=C/c1ccccc1` [Compound 873], the IC50 was > 100 µM. In the case of `O=S(=O)(/C=C/c1ccccc1)N1CCN(Cc2ccccc2)CC1` [Compound 869] it was > 100 µM. The result for `O=S(=O)(/C=C/c1ccccc1)N1CCOCC1` [Compound 864] reads > 100 µM. As to `Cc1cccc(C2CCCN2S(=O)(=O)F)c1` (centres unmarked) [Compound 884], the IC50 is > 100 µM. In the case of `C=CS(C)(=O)=O` [Compound 830] it was > 100 µM. `CCOCCNC(=O)/C=C/c1ccccc1` [Compound 853]: the concentration for half-maximal inhibition (IC50) was > 100 µM. In the case of `CCN1C(=O)C=CC1=O` [Compound 838] it was > 100 µM; in that of `CN(C)c1ccc(/C=C/C(=O)c2ccccc2)cc1` [Compound 887], > 100 µM; in that of `O=C(/C=C/c1ccccc1)Nc1c(F)cccc1F` [Compound 859], > 100 µM. For `O=C1C=CCCC1` [Compound 885], the IC50 is > 100 µM. In the case of `O=C(/C=C/c1cccc(Br)c1)c1cccc(Br)c1` [Compound 896] it was > 100 µM; in that of `CN(C(=O)/C=C/c1ccccc1)c1ccccc1` [Compound 863], > 100 µM; in that of `COc1ccc(/C=C/S(=O)(=O)c2ccc(Cl)cc2)cc1` [Compound 892], > 100 µM. The result for `O=C(/C=C/c1ccc(O)cc1)c1ccc(O)cc1O` [Compound 813] reads > 100 µM.

In the case of `CC1CC(C)CN(S(=O)(=O)/C=C/c2ccccc2)C1` (centres unmarked) [Compound 870], the half-inhibitory concentration (IC50) was > 100 µM.

Regarding `O=c1c(O)c(-c2ccc(O)cc2)oc2ccccc12` [Compound 815], the half-maximal inhibitory concentration (IC50) was > 100 µM.

In the case of `O=C(/C=C/c1ccccc1)N1CCCC1` [Compound 855], the IC50 is > 100 µM.

Take `CC(=O)/C=C/c1cc2c(cc1Br)OCO2` [Compound 889]: the 50% inhibitory concentration (IC50) was > 100 µM.

For the compound `O=C(/C=C/c1ccc2c(c1)OCO2)c1ccccc1` [Compound 886], the IC50 is > 100 µM. Take `O=S(=O)(/C=C/c1ccccc1)Oc1ccc(Br)cc1` [Compound 880]: the IC50 was > 100 µM. In the case of `Cc1ccc(=O)n(-c2ccccc2)c1` [Compound 836] it was > 100 µM; in that of `O=S(=O)(/C=C/c1ccccc1)Oc1ccc(I)cc1` [Compound 877], > 100 µM; in that of `CC(C)(C)OC(=O)N1CCN(S(=O)(=O)/C=C/c2ccccc2)CC1` [Compound 866], > 100 µM. In the case of `O=c1c(O)c(-c2ccc(O)c(O)c2)oc2cc(O)cc(O)c12` [Compound 850] it was > 100 µM; in that of `CC(C)c1ccc(OS(=O)(=O)/C=C/c2ccccc2)cc1` [Compound 878], > 100 µM; in that of `CC(C)(C)OC(=O)N1CCN(C(=O)/C=C/c2ccccc2)CC1` [Compound 844], > 100 µM. Turning to `Oc1cc(O)c2c(c1)O[C@H](c1ccc(O)c(O)c1)[C@@H](O)C2` [Compound 814], the IC50 was > 100 µM. `C/C(O)=C(\C#N)C(=O)Nc1ccc(C(F)(F)F)cc1` [Compound 837]: the half-inhibitory concentration (IC50) was > 100 µM. In the case of `O=C(/C=C/c1ccccc1)c1ccc(Cl)cc1` [Compound 105] it was 10 to 100 µM. With `COc1ccc(COCCCCC2=C3CCC(C)CC3CC2=O)cc1` (centres unmarked) [Compound 897], the IC50 is > 100 µM. The result for `CN(C)C/C=C/C(=O)O` [Compound 876] reads > 100 µM; that for `C=C(C)C(=O)N(CC)CC` [Compound 894], > 100 µM; that for `C=CC(=O)N(C)C` [Compound 829], > 100 µM. Consider `O=S(=O)(/C=C/c1ccccc1)N1CCCCC1` [Compound 872], for which the 50% inhibitory concentration (IC50) is > 100 µM. In the case of `O=Cc1cc2c(cc1C#Cc1ccccc1)OCO2` [Compound 898] it was > 100 µM. In the case of `C=CC(=O)OC` [Compound 828], the IC50 is > 100 µM. In the case of `C=C(C)C(N)=O` [Compound 825] it was > 100 µM. On to `O=C(/C=C/c1ccccc1)N1CCOCC1` [Compound 841], for which the half-inhibitory concentration (IC50) was > 100 µM. As for `O=C(/C=C/c1ccccc1)N1CCCCC1` [Compound 840], the half-inhibitory concentration (IC50) is > 100 µM. `COc1cc(-c2ncn(/C=C\C(=O)OC(C)C)n2)cc(C(F)(F)F)c1` [Compound 902] showed an IC50 of 1 to 10 µM. Regarding `NC(=O)/C=C/c1ccccc1` [Compound 851], the IC50 is > 100 µM. In the case of `O=C1CC(c2cccc(O)c2)Oc2ccccc21` (centres unmarked) [Compound 817] it was > 100 µM; in that of `COc1cc(/C=C/C(=O)O)ccc1O` [Compound 803], > 100 µM. For the compound `CN(c1ccccc1)S(=O)(=O)F` [Compound 883], the IC50 is > 100 µM.

`O=S(=O)(/C=C/c1ccccc1)Oc1cccc(F)c1` [Compound 879]: the IC50 was > 100 µM.

As for `CS(=O)(=O)/C=C/c1ccccc1` [Compound 847], the IC50 was > 100 µM. The result for `O=C(/C=C\n1cnc(-c2cc(C(F)(F)F)cc(C(F)(F)F)c2)n1)N1CC(F)(F)C1` [Compound 903] reads 1 to 10 µM; that for `CC(C)N(C(C)C)S(=O)(=O)/C=C/c1ccccc1` [Compound 871], > 100 µM. The result for `COc1ccc(/C=C/C(=O)c2ccccc2)cc1` [Compound 111] reads 10 to 100 µM. In the case of `C=CS(=O)(=O)c1ccccc1` [Compound 32] it was 10 to 100 µM; in that of `C/C(C=O)=C\c1ccccc1` [Compound 827], > 100 µM. As to `O=S(=O)(/C=C/c1ccccc1)c1ccc(Cl)cc1` [Compound 893], the IC50 is > 100 µM.

Regarding `NS(=O)(=O)/C=C/c1ccccc1` [Compound 865], the IC50 is > 100 µM.

As for `CN(C)C/C=C/C(=O)Nc1cc2c(Nc3ccc(F)c(Cl)c3)ncnc2cc1O[C@@H]1CCOC1` [Compound 833], the half-maximal inhibitory concentration (IC50) was > 100 µM. In the case of `C#CCCOc1cccc(/C=C/S(=O)(=O)F)c1` [Compound 119] it was 1 to 10 µM. In the case of `CNC(=O)c1ccccc1Sc1ccc2c(/C=C/c3ccccn3)n[nH]c2c1` [Compound 834] it was > 100 µM.

Take `O=C(/C=C/c1cccc(Cl)c1)c1cccc(Cl)c1` [Compound 895]: the 50% inhibitory concentration (IC50) is > 100 µM. With `N#C/C(=C1/SC[C@@H](c2ccc(Cl)cc2Cl)S1)n1ccnc1` [Compound 835], the IC50 is > 100 µM. On to `COc1cc(/C=C/C(=O)N2CCC=CC2=O)cc(OC)c1OC` [Compound 905, Piperlongumine], for which the half-inhibitory concentration (IC50) fell in the range of 1 to 10 µM. For `O=C(/C=C/c1ccc(Br)cc1)c1ccccc1` [Compound 101], the IC50 is 10 to 100 µM.
